Measured values taken from US5654178A, “Immunoassay for tetrachloroisophthalonitrile (chlorothalonil), its derivatives and breakdown products” (ISK Biosciences Corporation, priority 1995, dated 1997).
Values after ≈ are worked out from the molar mass of the structure shown.

Test system: mAb 6F9
Test: TCPN EIA, reactivity profile with monoclonal antibody
Type: binding, mouse
Details: 10 min
Method: (§1) The following immunoassay protocol was followed
(§2) 1. Microplates were prepared by binding screening conjugate Cl-O-AHT to the polystyrene surface.
(§3) 2. An appropriately diluted sample (200 μl) and the anti-TCPN antibody conjugated to horse radish peroxidase (50 μl) were added and incubated for 10 minutes.
(§4) 3. The wells were rinsed, and 200 μl of substrate, tetramethyl benzidine (TMB), was added to the wells.
(§5) 4. The plates were incubated for a further 10 minutes and 50 μl of stop solution (1.5% NaF) was added.
(§6) 5. The color reaction was read by measuring absorbance at 650 nm.
(§7) The cross reactivity of various TCPN derivatives and other benzene ring-based haptens were assessed using the above antibody preparations.

Structure (SMILES) | IC50
NC(=O)c1c(Cl)c(Cl)cc(C(=O)O)c1Cl [acid/amide TCPN, 3-carbamyl-2,4,5-trichlorobenzoic acid] | > 10^4 ppb
CCCN(CCC)c1c([N+](=O)[O-])cc(C(F)(F)F)cc1[N+](=O)[O-] [Trifluralin] | > 10^4 ppb
N#Cc1c(S)c(Cl)c(Cl)c(C#N)c1Cl [4-mercaptoTCPN, 4-mercapto-2,5,6-trichloroisophthalonitrile] | 4.8 ppb
N#Cc1c(Cl)c(Cl)c(Cl)c(C(N)=O)c1Cl [amide TCPN, 2,4,5,6-tetrachloro-3-cyanobenzamide] | 800 ppb
COC(=O)Nc1nc2ccccc2[nH]1 [MBC, carbendazim] | > 10^4 ppb
Clc1c(Cl)c(Cl)c(Cl)c(Cl)c1Cl [HCB, hexachlorobenzene] | > 10^4 ppb
CCNc1nc(Cl)nc(NC(C)C)n1 [Atrazine] | > 10^4 ppb
CCCCNC(=O)n1c(NC(=O)OC)nc2ccccc21 [Benomyl] | > 10^4 ppb
CCc1cccc(CC)c1N(COC)C(=O)CCl [Alachlor] | > 10^4 ppb
N#Cc1c(O)c(Cl)c(Cl)c(C#N)c1Cl [4-hydroxyTCPN, 4-hydroxy-2,5,6-trichloroisophthalonitrile] | 8.0 ppb
N#Cc1c(N)c(Cl)c(Cl)c(C#N)c1Cl [4-aminoTCPN, 4-amino-2,5,6-trichloroisophthalonitrile] | 2.4 ppb
CCc1cccc(C)c1N(C(=O)CCl)C(C)COC (stereo not drawn) [Metolachlor] | > 10^4 ppb
N#Cc1c(Cl)c(Cl)c(Cl)c(Cl)c1Cl [PCBN, pentachlorobenzonitrile] | 30 ppb
N#Cc1c(Cl)c(N)c(Cl)c(C#N)c1Cl [5-amino-TCPN, 5-amino-2,4,6-trichloroisophthalonitrile] | 1.9 ppb
N#Cc1c(Cl)c(Cl)c(Cl)c(C#N)c1Cl [TCPN, tetrachloroisophthalonitrile] | 2.2 ppb
N#Cc1c(Cl)c(O)c(Cl)c(C#N)c1Cl [5-hydroxyTCPN, 5-hydroxy-2,4,6-trichloroisophthalonitrile] | 7.0 ppb

Same assay, conditions: relative to TCPN

Structure (SMILES) | % Cross Reactivity
NC(=O)c1c(Cl)c(Cl)cc(C(=O)O)c1Cl [acid/amide TCPN, 3-carbamyl-2,4,5-trichlorobenzoic acid] | < 0.01%
CCCN(CCC)c1c([N+](=O)[O-])cc(C(F)(F)F)cc1[N+](=O)[O-] [Trifluralin] | < 0.01%
N#Cc1c(S)c(Cl)c(Cl)c(C#N)c1Cl [4-mercaptoTCPN, 4-mercapto-2,5,6-trichloroisophthalonitrile] | 46%
N#Cc1c(Cl)c(Cl)c(Cl)c(C(N)=O)c1Cl [amide TCPN, 2,4,5,6-tetrachloro-3-cyanobenzamide] | 2.8%
COC(=O)Nc1nc2ccccc2[nH]1 [MBC, carbendazim] | < 0.01%
Clc1c(Cl)c(Cl)c(Cl)c(Cl)c1Cl [HCB, hexachlorobenzene] | < 0.01%
CCNc1nc(Cl)nc(NC(C)C)n1 [Atrazine] | < 0.01%
CCCCNC(=O)n1c(NC(=O)OC)nc2ccccc21 [Benomyl] | < 0.01%
CCc1cccc(CC)c1N(COC)C(=O)CCl [Alachlor] | < 0.01%
N#Cc1c(O)c(Cl)c(Cl)c(C#N)c1Cl [4-hydroxyTCPN, 4-hydroxy-2,5,6-trichloroisophthalonitrile] | 28%
N#Cc1c(N)c(Cl)c(Cl)c(C#N)c1Cl [4-aminoTCPN, 4-amino-2,5,6-trichloroisophthalonitrile] | 92%
CCc1cccc(C)c1N(C(=O)CCl)C(C)COC (stereo not drawn) [Metolachlor] | < 0.01%
N#Cc1c(Cl)c(Cl)c(Cl)c(Cl)c1Cl [PCBN, pentachlorobenzonitrile] | 7.3%
N#Cc1c(Cl)c(N)c(Cl)c(C#N)c1Cl [5-amino-TCPN, 5-amino-2,4,6-trichloroisophthalonitrile] | 116%
N#Cc1c(Cl)c(Cl)c(Cl)c(C#N)c1Cl [TCPN, tetrachloroisophthalonitrile] | 100%
N#Cc1c(Cl)c(O)c(Cl)c(C#N)c1Cl [5-hydroxyTCPN, 5-hydroxy-2,4,6-trichloroisophthalonitrile] | 31%

Test system: polyclonal anti-TCPN antibody
Test: TCPN EIA, reactivity profile with polyclonal antibody
Type: binding
Details: 10 min
Method: as §1, §2, §3, §4, §5, §6, §7

Structure (SMILES) | IC50
NC(=O)c1c(Cl)c(Cl)cc(C(=O)O)c1Cl [acid/amide TCPN, 3-carbamyl-2,4,5-trichlorobenzoic acid] | > 10^4 ppb
CCCN(CCC)c1c([N+](=O)[O-])cc(C(F)(F)F)cc1[N+](=O)[O-] [Trifluralin] | > 10^4 ppb
N#Cc1c(S)c(Cl)c(Cl)c(C#N)c1Cl [4-mercaptoTCPN, 4-mercapto-2,5,6-trichloroisophthalonitrile] | 10 ppb
N#Cc1c(Cl)c(Cl)c(Cl)c(C(N)=O)c1Cl [amide TCPN, 2,4,5,6-tetrachloro-3-cyanobenzamide] | 700 ppb
COC(=O)Nc1nc2ccccc2[nH]1 [MBC, carbendazim] | > 10^4 ppb
Clc1c(Cl)c(Cl)c(Cl)c(Cl)c1Cl [HCB, hexachlorobenzene] | > 10^4 ppb
CCNc1nc(Cl)nc(NC(C)C)n1 [Atrazine] | > 10^4 ppb
CCCCNC(=O)n1c(NC(=O)OC)nc2ccccc21 [Benomyl] | > 10^4 ppb
CCc1cccc(CC)c1N(COC)C(=O)CCl [Alachlor] | > 10^4 ppb
N#Cc1c(O)c(Cl)c(Cl)c(C#N)c1Cl [4-hydroxyTCPN, 4-hydroxy-2,5,6-trichloroisophthalonitrile] | 1010 ppb
N#Cc1c(N)c(Cl)c(Cl)c(C#N)c1Cl [4-aminoTCPN, 4-amino-2,5,6-trichloroisophthalonitrile] | 43 ppb
CCc1cccc(C)c1N(C(=O)CCl)C(C)COC (stereo not drawn) [Metolachlor] | > 10^4 ppb
N#Cc1c(Cl)c(Cl)c(Cl)c(Cl)c1Cl [PCBN, pentachlorobenzonitrile] | 60 ppb
N#Cc1c(Cl)c(N)c(Cl)c(C#N)c1Cl [5-amino-TCPN, 5-amino-2,4,6-trichloroisophthalonitrile] | 43 ppb
N#Cc1c(Cl)c(Cl)c(Cl)c(C#N)c1Cl [TCPN, tetrachloroisophthalonitrile] | 5.0 ppb
N#Cc1c(Cl)c(O)c(Cl)c(C#N)c1Cl [5-hydroxyTCPN, 5-hydroxy-2,4,6-trichloroisophthalonitrile] | 800 ppb

Same assay, conditions: relative to TCPN

Structure (SMILES) | % Cross Reactivity
NC(=O)c1c(Cl)c(Cl)cc(C(=O)O)c1Cl [acid/amide TCPN, 3-carbamyl-2,4,5-trichlorobenzoic acid] | < 0.01%
CCCN(CCC)c1c([N+](=O)[O-])cc(C(F)(F)F)cc1[N+](=O)[O-] [Trifluralin] | < 0.01%
N#Cc1c(S)c(Cl)c(Cl)c(C#N)c1Cl [4-mercaptoTCPN, 4-mercapto-2,5,6-trichloroisophthalonitrile] | 60%
N#Cc1c(Cl)c(Cl)c(Cl)c(C(N)=O)c1Cl [amide TCPN, 2,4,5,6-tetrachloro-3-cyanobenzamide] | 0.7%
COC(=O)Nc1nc2ccccc2[nH]1 [MBC, carbendazim] | < 0.01%
Clc1c(Cl)c(Cl)c(Cl)c(Cl)c1Cl [HCB, hexachlorobenzene] | < 0.01%
CCNc1nc(Cl)nc(NC(C)C)n1 [Atrazine] | < 0.01%
CCCCNC(=O)n1c(NC(=O)OC)nc2ccccc21 [Benomyl] | < 0.01%
CCc1cccc(CC)c1N(COC)C(=O)CCl [Alachlor] | < 0.01%
N#Cc1c(O)c(Cl)c(Cl)c(C#N)c1Cl [4-hydroxyTCPN, 4-hydroxy-2,5,6-trichloroisophthalonitrile] | 0.5%
N#Cc1c(N)c(Cl)c(Cl)c(C#N)c1Cl [4-aminoTCPN, 4-amino-2,5,6-trichloroisophthalonitrile] | 12%
CCc1cccc(C)c1N(C(=O)CCl)C(C)COC (stereo not drawn) [Metolachlor] | < 0.01%
N#Cc1c(Cl)c(Cl)c(Cl)c(Cl)c1Cl [PCBN, pentachlorobenzonitrile] | 8.3%
N#Cc1c(Cl)c(N)c(Cl)c(C#N)c1Cl [5-amino-TCPN, 5-amino-2,4,6-trichloroisophthalonitrile] | 12%
N#Cc1c(Cl)c(Cl)c(Cl)c(C#N)c1Cl [TCPN, tetrachloroisophthalonitrile] | 100%
N#Cc1c(Cl)c(O)c(Cl)c(C#N)c1Cl [5-hydroxyTCPN, 5-hydroxy-2,4,6-trichloroisophthalonitrile] | 0.6%

Test system: not listed separately
Test: Solubility
Type: physicochemical
Details: dmf, organic solvent or mixture; read-out: solubility

Structure (SMILES) | solubility
N#Cc1c(Cl)c(C#N)c(Cl)c(OC(=O)CC(=O)O)c1Cl [BK-489-36] | 4500 µg/mL (≈ 13.5 mM)

Same assay, conditions: water or polar organic solvents

Structure (SMILES) | solubility
N#Cc1c(Cl)c(C#N)c(Cl)c(NC(=O)NCC(=O)O)c1Cl [BK-489-41] | high solubility
N#Cc1c(Cl)c(C#N)c(Cl)c(OC(=O)NCC(=O)O)c1Cl [BK-489-35] | extremely low solubility

Test system: not given
Test: not given
Details: cited from earlier work

Structure (SMILES) | solubility in water
N#Cc1c(Cl)c(Cl)c(Cl)c(C#N)c1Cl [TCPN, tetrachloroisophthalonitrile] | practically insoluble in water

Test system: experimental animals
Test: not given
Details: cited from earlier work

Structure (SMILES) | sensitizing properties
N#Cc1c(Cl)c(Cl)c(Cl)c(C#N)c1Cl [TCPN, tetrachloroisophthalonitrile] | sensitizing properties

Test system: human skin
Test: not given
Details: exposed humans; cited from earlier work

Structure (SMILES) | allergic reaction
N#Cc1c(Cl)c(Cl)c(Cl)c(C#N)c1Cl [TCPN, tetrachloroisophthalonitrile] | stimulates an allergic reaction, leading to an IgE antibody response

Same assay, conditions: production plant and field; cited from earlier work

Structure (SMILES) | contact dermatitis
N#Cc1c(Cl)c(Cl)c(Cl)c(C#N)c1Cl [TCPN, tetrachloroisophthalonitrile] | associated with contact dermatitis

Same assay, conditions: tested directly on human skin; cited from earlier work

Structure (SMILES) | sensitizing properties
N#Cc1c(Cl)c(Cl)c(Cl)c(C#N)c1Cl [TCPN, tetrachloroisophthalonitrile] | sensitizing properties
